# “Also recorded” adds a separate entry of the source.
# Tests used:
# α-SMA mRNA = assay: BDL mice liver quantitative RT-PCR, Alpha-SMA; format: in vivo; conditions: for Alpha-SMA relative mRNA expression level: BDL mice liver, normalized to 36B4, Sham 1.00, mean ± SD
# Protocol: (§1) Quantitative RT-PCR: Total ribonucleic acid (RNA) was extracted from liver samples using RNAiso (Takara Bio, Japan) according to the manufacturer's instructions. One μg of RNA was reverse-transcribed using a reaction mixture containing 4.4 mM magnesium chloride (MgCl2) (F. Hoffmann-La Roche, Switzerland), 40 U RNase inhibitor (Toyobo, Japan), 0.5 mM dNTP (Promega, USA), 6.28 μM random hexamer (Promega), 5× first strand buffer (Promega), 10 mM dithiothreitol (Invitrogen, USA) and 200 U MMLV-RT (Invitrogen) in a final volume of 20 μL. The reaction was carried out for 1 hour at 37° C., followed by 5 minutes at 99° C. Real-time PCR was performed using real-time PCR DICE and TB Green™ Premix Ex Taq™ II (Takara Bio). To calculate the relative mRNA expression level, the expression of each gene (α-SMA, TIMP-1, TGF-β and Collagen Type 1) was normalized to that of reference gene 36B4 (gene symbol: Rplp0). Information regarding the PCR-primer sets and the plate layout are described in Tables 8 and 9.
# Collagen Type 1 mRNA = assay: BDL mice liver quantitative RT-PCR, Collagen Type 1; format: in vivo; conditions: for Collagen Type 1 relative mRNA expression level: BDL mice liver, normalized to 36B4, Sham 1.00, mean ± SD
# Protocol: as §1
# NAFLD patients [1] = assay: Phase IIa study in NAFLD patients: adverse events; format: in vivo, human
# Excerpt: (§2) The study was planned to include 96 evaluable patients with 32 patients randomized per treatment group.
# NAFLD patients [2] = assay: Phase IIa study in NAFLD patients: panel of protein biomarkers (proteomics); format: in vivo, human
# Excerpt: as §2
# NAFLD patients [3] = assay: Phase IIa study in NAFLD patients: metabolic and glycemic parameters; format: in vivo, human
# Protocol: as §2
# HOMA-IR/Adipo-IR: HOMA-IR/Adipo-IR levels are a method of measuring insulin resistance. HOMA-IR is calculated by multiplying fasting plasma insulin (FPI) by fasting plasma glucose (FPG), then dividing by the constant 405. Adipo-IR is calculated by multiplying fasting non-esterified fatty acids (NEFA)×fasting insulin. Blood samples were taken to assess HOMA-IR and Adipo-IR at Visit 2/Baseline, Visit 3/Week 2, Visit 4/Week 4, Visit 6/Week 8, Visit 8/Week 12, Visit 10/Week16 and Follow up Visit 11/Week 20. All subjects were required to have been fasted for a minimum of 8 hours prior to blood sampling. If subjects had not fasted for a minimum of 8 hours, the duration of fasting time was recorded, and subjects encouraged to fast appropriately for the next clinical visit.
# Exploratory analysis: The exploratory analysis included analysis of lipid and metabolic parameters including total cholesterol, triglycerides, very low-density lipoprotein cholesterol (VLDL-C), low density lipoprotein cholesterol (LDL-C), high density lipoprotein cholesterol (HDL-C), non-high-density lipoprotein cholesterol (non-HDL-C), remnant-like particle cholesterol (RLP-C), fasting glucose, insulin, free fatty acids and hemoglobin A1C (HbA1C). Additional exploratory analysis included high throughput lipidomics and proteomics.
# [4] = tested on: cholestasis induced by BDL; assay: BDL mice: Sirius red staining of liver sections, fibrosis area; format: in vivo; conditions: for Sirius red-positive area: BDL mice liver, Day 14, mean ± SD, n = 8; for fibrosis area compared with the Vehicle group: BDL mice
# Protocol: […]: To visualize collagen deposition, Bouin's fixed liver sections were stained using picro-Sirius red solution (Waldeck, Germany). For quantitative analysis of fibrosis area, bright field images of Sirius red-stained sections were captured using a digital camera (DFC295; Leica, Germany) at 100-fold magnification, and the positive areas in 5 fields/section were measured using ImageJ software (National Institute of Health, USA).
# [5] = tested on: cholestasis induced by BDL; assay: BDL mice: serum biochemistry (ALT, total bilirubin); format: in vivo; conditions: for Serum ALT / Serum Total Bilirubin: n = 8
# Protocol: Sample Collection: For serum samples, non-fasting blood was collected in serum separate tubes without anticoagulant through direct cardiac puncture and centrifuged at 3,500×g for 4 minutes at 4° C. The supernatant was collected and stored at −80° C. for biochemistry (30 μL) and shipping (all the remaining). For liver samples, left lateral lobe was collected and cut into 6 pieces. Two pieces of left lateral lobe were fixed in Bouin's solution and then embedded in paraffin. Samples were stored at room temperature for histological analysis. The other 2 pieces of left lateral lobe were embedded in O.C.T. compound and quick frozen in liquid nitrogen. Samples were stored at −80° C. The remaining pieces of left lateral lobe was snap frozen in liquid nitrogen and stored at −80° C. for gene expression analyses. Right medial lobe, left medial lobe, right lobe and caudate lobe were snap frozen in liquid nitrogen and stored at −80° C. for shipping.
# [6] = BDL mice, 500 mg/kg PO QD Day 0-13, 500 mg/kg
# [7] = BDL mice, DS102 treatment groups as a whole
# [8] = 1 g or 2 g per day, baseline to Week 16 vs placebo
# [9] = 50 mg/kg PO QD Day 0-13, Day 14, mean ± SD
# [10] = 250 mg/kg PO QD Day 0-13, Day 14, mean ± SD
# [11] = 500 mg/kg PO QD Day 0-13, Day 14, mean ± SD
substance,measurement,setting,value
15-HEPE [DS102],Alpha-SMA relative mRNA expression level,α-SMA mRNA; 50 mg/kg PO QD Day 0-13,3.21 ± 1.67
same,Alpha-SMA relative mRNA expression level,α-SMA mRNA; 250 mg/kg PO QD Day 0-13,2.66 ± 1.33
same,Alpha-SMA relative mRNA expression level,α-SMA mRNA; 500 mg/kg PO QD Day 0-13,1.42 ± 0.75
same,α-SMA mRNA expression level compared with the Vehicle group,α-SMA mRNA; [6],tended to decrease; also recorded: trend approaching significance
same,"α-SMA mRNA expression level, Vehicle group vs the DS102 treatment groups",α-SMA mRNA; [7],no significant differences
same,Collagen Type 1 relative mRNA expression level,Collagen Type 1 mRNA; 50 mg/kg PO QD Day 0-13,4.94 ± 2.76
same,Collagen Type 1 relative mRNA expression level,Collagen Type 1 mRNA; 250 mg/kg PO QD Day 0-13,4.21 ± 1.90
same,Collagen Type 1 relative mRNA expression level,Collagen Type 1 mRNA; 500 mg/kg PO QD Day 0-13,2.51 ± 1.39
same,Collagen Type 1 mRNA expression level compared with the Vehicle group,Collagen Type 1 mRNA; [6],tended to decrease; also recorded: trend approaching significance
same,"Collagen Type 1 mRNA expression level, Vehicle group vs the DS102 treatment groups",Collagen Type 1 mRNA; [7],no significant differences
same,"Death, patients n",NAFLD patients [1]; 1 g (n = 32),0
same,"Patients with ≥1 AE related to study drug, %",NAFLD patients [1]; 1 g (n = 32),(6.3) %
same,"Patients with ≥1 AE, %",NAFLD patients [1]; 1 g (n = 32),(59.4) %
same,"Death, patients n",NAFLD patients [1]; 2 g (n = 30),0
same,"Patients with ≥1 AE related to study drug, %",NAFLD patients [1]; 2 g (n = 30),(10.0) %
same,"Patients with ≥1 AE, %",NAFLD patients [1]; 2 g (n = 30),(50.0) %
same,"Patients with ≥1 SAE, %",NAFLD patients [1]; 2 g (n = 30),(3.3) %
same,drug related serious adverse events (SAEs),"NAFLD patients [1]; NAFLD patients, 1 g or 2 g per day, 16 weeks",no drug related serious adverse events
same,safety and tolerance,"NAFLD patients [1]; NAFLD patients, 1 g or 2 g per day, 16 weeks, compared to placebo",safe and well tolerated
same,TR (protein level),NAFLD patients [2]; 1 g,significant reductions
same,proteins that passed the 1st threshold based on the Benjamini-Hochberg testing,"NAFLD patients [2]; 1 g group, Placebo group 0 proteins",1
same,"NASH drug development targets (CCR215 signaling, Galectin3, AOC3)",NAFLD patients [2]; 2 g,decreased
same,inflammatory and pro-fibrotic proteins (protein expression),"NAFLD patients [2]; 2 g, Table 21: PAI-1, TIMP-1, DPP4, TLT2, CCL16, MCP-1, SAA4, PI3, TR, LILRB1, TNRSF11A, Table 22: TL12, AOC3, PRSS2",decreased
same,"number of markers (inflammation, fibrosis, lipid metabolism, apoptosis, chemotaxis) with significantly downregulated expression","NAFLD patients [2]; 2 g, panel of greater than 350 protein biomarkers",over 150
same,expression of multiple circulating chemokines,"NAFLD patients [2]; NAFLD patients, vs placebo",decreased
same,expression of multiple proteins associated with increased cardiovascular risk,"NAFLD patients [2]; NAFLD patients, vs placebo",decreased
same,expression of multiple tumor necrosis factor receptor superfamily members,"NAFLD patients [2]; NAFLD patients, vs placebo",decreased
same,expression of multiple vascular adhesion molecules,"NAFLD patients [2]; NAFLD patients, vs placebo",decreased
same,insulin sensitivity and glycemic control,"NAFLD patients [3]; 1 g or 2 g per day, 16 weeks",improvement
same,markers of metabolic overload,"NAFLD patients [3]; 1 g or 2 g per day, 16 weeks",statistically significant reduction
same,insulin resistance indices (HOMA-IR and adipo-IR levels),"NAFLD patients [3]; 1 g or 2 g per day, Week 16",improvement
same,HbA1c levels / glycemic control,NAFLD patients [3]; [8],clinically significant improvements
same,"insulin, glucose, and free fatty acid levels",NAFLD patients [3]; [8],reduction
same,insulin resistance indices (HOMA-IR and adipo-IR levels),"NAFLD patients [3]; 2 g per day, Week 16, Per Protocol Set",significant improvements
same,Sirius red-positive area,[4]; 50 mg/kg PO QD Day 0-13,1.70 ± 0.63%
same,Sirius red-positive area,[4]; 250 mg/kg PO QD Day 0-13,1.06 ± 0.48%
same,Sirius red-positive area,[4]; 500 mg/kg PO QD Day 0-13,1.42 ± 0.60%
same,fibrosis area compared with the Vehicle group,[4]; 50 mg/kg PO QD Day 0-13,no significant difference
same,fibrosis area compared with the Vehicle group,[4]; 250 mg/kg PO QD Day 0-13,significant decrease
same,fibrosis area compared with the Vehicle group,"[4]; 500 mg/kg PO QD Day 0-13, 500 mg/kg",tended to decrease; also recorded: trend approaching significance
same,Serum ALT,[5]; [9],402 ± 112 U/L
same,Serum Total Bilirubin,[5]; [9],26.8 ± 6.9 mg/dL
same,Serum ALT,[5]; [10],351 ± 155 U/L
same,Serum Total Bilirubin,[5]; [10],23.5 ± 9.8 mg/dL
same,Serum ALT,[5]; [11],383 ± 147 U/L
same,Serum Total Bilirubin,[5]; [11],26.2 ± 6.1 mg/dL
same,serum ALT level vs Vehicle group,"[5]; 50, 250 and 500 mg/kg PO QD",no significant differences
same,serum total bilirubin level vs Vehicle group,"[5]; 50, 250 and 500 mg/kg PO QD",no significant differences

# Source: patent US12076304B2, “Compositions comprising 15-HEPE and methods of treating or preventing hematologic disorders, and/or related diseases” (priority 2020, dated 2024)
